Assay results reported in patent US10472663B2, “Procedure for the rapid determination of bacterial susceptibility to antibiotics that inhibit protein synthesis” (ABM TECHNOLOGIES, LLC, priority 2015, dated 2019).

How the values were obtained:
Assay type in all cases: cell-based
Escherichia coli = experiment: Micromax assay of mitomycin C-induced DNA fragmentation after tobramycin (Example 2); conditions: for DNA fragmentation of nucleoids: tobramycin 4 μg/ml 30 min followed by mitomycin C 50 μg/ml 60 min
Experimental: FIGS. 7-9 depict a TG1 strain susceptible to the aminoglycoside tobramycin, an inhibitor of protein synthesis, and mitomycin C, an agent which induces DNA damage. The other strain illustrated in FIGS. 10-12 was a clinical isolate resistant to tobramycin.
One portion of both bacterial strains was incubated with tobramycin at 4 μg/ml for 90 min (FIGS. 7 and 10), a dosage indicated by the CLSI as the breakpoint of susceptibility to tobramycin in the standard antibiogram based on microdilution. Another portion of both strains was incubated with mitomycin C at 50 μg/ml for 60 min (FIGS. 8 and 11). Still another portion of both strains was incubated with tobramycin at 4 μg/ml for 30 min followed by mitomycin C at 50 μg/ml for 60 min, without removing the tobramycin (FIGS. 9 and 12). A final portion was left with no antibiotic.
After incubation, cells were processed using a variant of the Micromax technology to visualize nucleoids, i.e. bacterial chromosomal DNA, in all the cells of the population. Samples from cells from the culture are immersed in an agarose microgel on a slide and incubated with a specific lysing solution to remove the cell wall in all the cells and release in the microgel the nucleoids contained inside the bacteria. These are dried, stained with a highly sensitive fluorochrome for DNA like SYBR Gold and visualized under fluorescence microscopy, Nucleoids from E. coli obtained using the Micromax assay are represented in FIGS. 7-12, FIGS. 7-9 correspond to a strain susceptible to tobramycin (TG1) and FIGS. 10-12 to a strain resistant to tobramycin.

Klebsiella pneumoniae = experiment: Variant Micromax assay of cell wall damage by meropenem after tobramycin, twelve strains; conditions: for cell wall lysis by meropenem: tobramycin 4 μg/ml 15 min followed by meropenem 1 μg/ml 60 min
Experimental: After incubation cells were processed using a variant Micromax technology to visualize the affectation or not of the cell wall based on the release or not of the nucleoids contained inside the bacteria. In the same manner described previously, samples from cells from the culture are immersed in an agarose microgel on a slide and incubated with a specific lysing solution that removes the cell wall only in those bacteria whose peptidoglycan was affected, thus releasing in the microgel the nucleoids contained inside. […] The processed bacteria in microgel are dried, stained with a high sensitive fluorochrome for DNA like SYBR Gold and visualized under fluorescence microscopy.
Further exemplifying the concept described above twelve strains of Klebsiella pneumoniae, 7 susceptible and 5 resistant to tobramycin, were processed using the same rationale and procedure. Specifically, one portion of each was incubated with tobramycin at 4 μg/ml for 75 min. Another portion was incubated with Meropenem at 1 μg/ml for 60 min. Still another portion was incubated with tobramycin at 4 μg/ml for 15 minutes followed by meropenem at 1 μg/ml for 60 min, without removing the tobramycin. A final portion remained without any antibiotics.

Pseudomonas aeruginosa = experiment: Variant Micromax assay of cell enlargement by ceftazidime after tobramycin (Example 7)
Experimental: As an example, two strains of Pseudomonas aeruginosa exponentially growing in Mueller-Hinton broth were assayed. These strains were both susceptible to the β-lactam ceftazidime, which inhibits peptidoglycan synthesis. One strain was susceptible and the other resistant to the aminoglycoside tobramycin (an inhibitor of protein synthesis). For the purpose of rapidly distinguishing the susceptible and the resistant strain to tobramycin each strain was subjected to four treatments.
A portion of each strain was incubated with tobramycin at 4 μg/ml (the CLSI breakpoint of susceptibility) for 75 minutes. An assay of this portion is depicted at FIGS. 31 and 34. Another portion of each strain was incubated with ceftazidime at 0.5 μg/ml for 60 minutes. An assay of this portion is depicted at FIGS. 32 and 35. Still another portion of both strains was incubated with tobramycin at 4 μg/ml for 15 minutes followed by ceftazidime at 0.5 μg/ml for 60 minutes, without removing the tobramycin. Assays of these strains can be seen at FIGS. 33 and 36, respectively. A final portion of each strain was not treated with either antibiotic.
After incubation with the antibiotics, cells were processed using a variant Micromax technology to visualize the enlargement or not of the bacteria. Samples from each culture were immersed in an agarose microgel on a slide, dried, stained with a high sensitive fluorochrome for DNA like SYBR Gold and visualized under fluorescence microscopy to visualize cell shape and size.

SMILES: NC[C@H]1O[C@H](O[C@H]2[C@H](O)[C@@H](O[C@H]3O[C@H](CO)[C@@H](O)[C@H](N)[C@H]3O)[C@H](N)C[C@@H]2N)[C@H](N)C[C@@H]1O [tobramycin]
- DNA fragmentation of nucleoids (Escherichia coli; tobramycin-resistant clinical isolate): the DNA remained fragmented
- DNA fragmentation of nucleoids (Escherichia coli; tobramycin-susceptible TG1 strain): nucleoids without observable DNA fragmentation
- modification of nucleoids (Escherichia coli; tobramycin alone 4 μg/ml 90 min, both strains): does not result in modifications of the nucleoids
- strains resistant to tobramycin (Klebsiella pneumoniae; of twelve strains): 5
- strains susceptible to tobramycin (Klebsiella pneumoniae; of twelve strains): 7
- cell wall lysis by meropenem (Klebsiella pneumoniae; tobramycin-resistant strains): the affectation of the cell wall by meropenem was not suppressed
- cell wall lysis by meropenem (Klebsiella pneumoniae; tobramycin-susceptible strains): no appearance of cell wall lysis by meropenem
- cell enlargement (Pseudomonas aeruginosa; tobramycin 4 μg/ml 15 minutes followed by ceftazidime 0.5 μg/ml 60 minutes, tobramycin-resistant strain): bacteria appeared enlarged
- bacterial shape and size (Pseudomonas aeruginosa; tobramycin alone 4 μg/ml 75 minutes, both strains): does not affect the bacterial shape and size
